Data taken from patent publication US9284317B2, “Substituted imidazo[1,2-a]pyrazines as MPS-1 inhibitors” (Bayer Intellectual Property GmbH, priority 2010, dated 2016).

What follows are molecules tested against human kinase Mps-1 (N-terminally GST-tagged human full length recombinant Mps-1 kinase) (Homo sapiens (Human), UniProt P33981) (assay: Mps-1 Kinase Assay (TR-FRET)). Conditions: 10 μM ATP, 1 μM biotinylated peptide substrate, 60 min at 22° C., read-out: Mps1 IC50.
Type: biochemical
Procedure: The human kinase Mps-1 phosphorylates a biotinylated substrate peptide. Detection of the phosphorylated product is achieved by time-resolved fluorescence resonance energy transfer (TR-FRET) from Europium-labelled anti-phospho-Serine/Threonine antibody as donor to streptavidin labelled with cross-linked allophycocyanin (SA-XLent) as acceptor. Compounds are tested for their inhibition of the kinase activity.
N-terminally GST-tagged human full length recombinant Mps-1 kinase (purchased from Invitrogen, Karslruhe, Germany, cat. no PV4071) was used. As substrate for the kinase reaction a biotinylated peptide of the amino-acid sequence […] (C-terminus in amide form, purchased from Biosynthan GmbH, Berlin) was used.
The concentration of Mps-1 in the assay was adjusted to the activity of the enzyme lot and was chosen appropriate to have the assay in the linear range, typical enzyme concentrations were in the range of about 1 nM (final conc. in the 5 μl assay volume).
The resulting mixture was incubated 1 h at 22° C. to allow the binding of the phosphorylated peptide to the anti-phospho(Ser/Thr)-Europium-antibody. Subsequently the amount of phosphorylated substrate was evaluated by measurement of the resonance energy transfer from the Europium-labelled anti-phospho(Ser/Thr) antibody to the Streptavidin-XLent.

Sequence of human kinase Mps-1 (N-terminally GST-tagged human full length recombinant Mps-1 kinase) (P33981 whole entry): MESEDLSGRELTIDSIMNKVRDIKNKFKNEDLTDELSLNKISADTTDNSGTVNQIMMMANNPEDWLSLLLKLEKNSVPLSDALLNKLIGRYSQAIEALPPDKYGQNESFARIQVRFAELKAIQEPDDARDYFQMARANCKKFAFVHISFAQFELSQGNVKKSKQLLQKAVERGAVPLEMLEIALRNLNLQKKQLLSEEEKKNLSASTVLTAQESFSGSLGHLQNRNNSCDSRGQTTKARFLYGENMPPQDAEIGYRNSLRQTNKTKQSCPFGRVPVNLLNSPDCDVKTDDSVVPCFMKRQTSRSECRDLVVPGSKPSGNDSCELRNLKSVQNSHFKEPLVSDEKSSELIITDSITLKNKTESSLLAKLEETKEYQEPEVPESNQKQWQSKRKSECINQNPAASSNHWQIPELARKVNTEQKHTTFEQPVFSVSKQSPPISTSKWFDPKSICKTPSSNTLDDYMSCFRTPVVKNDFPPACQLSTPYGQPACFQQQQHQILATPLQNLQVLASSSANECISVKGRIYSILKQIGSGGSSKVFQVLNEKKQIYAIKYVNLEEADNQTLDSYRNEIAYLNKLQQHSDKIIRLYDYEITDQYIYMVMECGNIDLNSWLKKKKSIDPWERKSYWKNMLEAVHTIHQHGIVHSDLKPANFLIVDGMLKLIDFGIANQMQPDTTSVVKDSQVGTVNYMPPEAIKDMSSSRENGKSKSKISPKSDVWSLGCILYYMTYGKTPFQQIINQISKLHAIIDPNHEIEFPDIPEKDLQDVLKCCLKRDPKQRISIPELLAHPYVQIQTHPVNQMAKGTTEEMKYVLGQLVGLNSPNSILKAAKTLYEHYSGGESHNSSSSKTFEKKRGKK

In order of falling IC50:
1. C/C=C/c1cn2c(-c3ccc(C(=O)NC4CC4)c(Cl)c3)cnc2c(NCC(C)(C)O)n1 [Example 1-12, 2-chloro-N-cyclopropyl-4-{8-[(2-hydroxy-2-methylpropyl)amino]-6-[(1E)-prop-1-en-1-yl]imidazo[1,2-a]pyrazin-3-yl}benzamide]  132 nM
2. C/C=C/c1cn2c(-c3ccc(C(=O)NC4CC4)c(F)c3)cnc2c(NCC2CCCO2)n1 (centres unmarked) [Example 1-17, N-cyclopropyl-2-fluoro-4-{6-[(1E)-prop-1-en-1-yl]-8-[(tetrahydrofuran-2-ylmethyl)amino]imidazo[1,2-a]pyrazin-3-yl}benzamide]  99.2 nM
3. CC(C)(C)OC(=O)NCC#CCCNc1nc(-c2ccccc2)cn2c(-c3ccc(C(=O)NC4CC4)cc3)cnc12 [Example 2-2, tert-Butyl [5-({3-[4-(cyclopropylcarbamoyl)phenyl]-6-phenylimidazo[1,2-a]pyrazin-8-yl}amino)pent-2-yn-1-yl]carbamate]  94.6 nM
4. C/C=C/c1cn2c(-c3ccc(C(=O)NC4CC4)c(Cl)c3)cnc2c(NCC(C)C)n1 [Example 1-10, 2-chloro-N-cyclopropyl-4-{8-[(2-methylpropyl)amino]-6-[(1E)-prop-1-en-1-yl]imidazo[1,2-a]pyrazin-3-yl}benzamide]  72.3 nM
5. C/C=C/c1cn2c(-c3ccc(C(=O)NC4CC4)c(Cl)c3)cnc2c(NCc2ccnn2C)n1 [Example 1-13, 2-chloro-N-cyclopropyl-4-(8-{[(1-methyl-1H-pyrazol-5-yl)methyl]amino}-6-[(1E)-prop-1-en-1-yl]imidazo[1,2-a]pyrazin-3-yl)benzamide]  70.6 nM
6. CC(C)(C)OC(=O)NC/C=C/CCNc1nc(-c2ccccc2)cn2c(-c3ccc(C(=O)NC4CC4)cc3)cnc12 [Example 2-3, tert-Butyl [(2E)-5-({3-[4-(cyclopropylcarbamoyl)phenyl]-6-phenylimidazo[1,2-a]pyrazin-8-yl}amino)pent-2-en-1-yl]carbamate]  64 nM
7. C/C=C/c1cn2c(-c3ccc(C(=O)NC4CC4)c(F)c3)cnc2c(NCC(C)(C)O)n1 [Example 1-16, N-cyclopropyl-2-fluoro-4-{8-[(2-hydroxy-2-methylpropyl)amino]-6-[(1E)-prop-1-en-1-yl]imidazo[1,2-a]pyrazin-3-yl}benzamide]  46.5 nM
8. C/C=C/c1cn2c(-c3ccc(C(=O)NC4CC4)c(F)c3)cnc2c(NCC(C)C)n1 [Example 1-14, N-cyclopropyl-2-fluoro-4-{8-[(2-methylpropyl)amino]-6-[(1E)-prop-1-en-1-yl]imidazo[1,2-a]pyrazin-3-yl}benzamide]  38.7 nM
9. C/C=C/c1cn2c(-c3ccc(C(=O)NC4CC4)c(Cl)c3)cnc2c(NCCC(F)(F)F)n1 [Example 1-11, 2-chloro-N-cyclopropyl-4-{6-[(1E)-prop-1-en-1-yl]-8-[(3,3,3-trifluoropropyl)amino]imidazo[1,2-a]pyrazin-3-yl}benzamide]  34.3 nM
10. C/C=C/c1cn2c(-c3ccc(C(=O)NC4CC4)c(F)c3)cnc2c(NCc2ccnn2C)n1 [Example 1-18, N-cyclopropyl-2-fluoro-4-(8-{[(1-methyl-1H-pyrazol-5-yl)methyl]amino}-6-[(1E)-prop-1-en-1-yl]imidazo[1,2-a]pyrazin-3-yl)benzamide]  31.9 nM
11. C=Cc1ccc(-c2cn3c(-c4ccc(C(=O)NC5CC5)cc4)cnc3c(NCC(C)C)n2)cc1 [Example 1-20, N-cyclopropyl-4-{6-(4-ethenylphenyl)-8-[(2-methylpropyl)amino]imidazo[1,2-a]pyrazin-3-yl}benzamide]  21.4 nM
12. C/C=C/c1cn2c(-c3ccc(C(=O)NC4CC4)c(F)c3)cnc2c(NCCC(F)(F)F)n1 [Example 1-15, N-cyclopropyl-2-fluoro-4-{6-[(1E)-prop-1-en-1-yl]-8-[(3,3,3-trifluoropropyl)amino]imidazo[1,2-a]pyrazin-3-yl}benzamide]  15.4 nM
13. CC(C)CNc1nc(C2CCCCC2)cn2c(-c3ccc(C(=O)NC4CC4)cc3)cnc12 [Example 4-1, 4-{6-cyclohexyl-8-[(2-methylpropyl)amino]imidazo[1,2-a]pyrazin-3-yl}-N-cyclopropylbenzamide]  12.6 nM
14. CC(C)(C)OC(=O)NC/C=C\CCNc1nc(-c2ccccc2)cn2c(-c3ccc(C(=O)NC4CC4)cc3)cnc12 [Example 2-4, tert-Butyl [(2Z)-5-({3-[4-(cyclopropylcarbamoyl)phenyl]-6-phenylimidazo[1,2-a]pyrazin-8-yl}amino)pent-2-en-1-yl]carbamate]  12.3 nM
15. CC(C)CNc1nc(NC(=O)c2ccccn2)cn2c(-c3ccc(C(=O)NC4CC4)cc3)cnc12 [Example 6-1, N-{3-[4-(cyclopropylcarbamoyl)phenyl]-8-[(2-methylpropyl)amino]imidazo[1,2-a]pyrazin-6-yl}pyridine-2-carboxamide]  10.4 nM
16. CC(C)(C)OC(=O)NCCCNc1nc(-c2ccncc2)cn2c(-c3ccc(C(=O)NC4CC4)cc3)cnc12 [Example 2-1, tert-butyl [3-({3-[4-(cyclopropylcarbamoyl)phenyl]-6-(pyridin-4-yl)imidazo[1,2-a]pyrazin-8-yl}amino)propyl]carbamate]  8.3 nM
17. COCc1cccc(-c2cn3c(-c4ccc(C(=O)NC5CC5)cc4)cnc3c(NCC(C)C)n2)c1 [Example 1-2, N-cyclopropyl-4-{6-[3-(methoxymethyl)phenyl]-8-[(2-methylpropyl)amino]imidazo[1,2-a]pyrazin-3-yl}benzamide]  7.1 nM
18. C/C=C/c1cn2c(-c3ccc(C(=O)NC4CC4)cc3)cnc2c(NCC(C)C)n1 [Example 1-1, N-cyclopropyl-4-{8-[(2-methylpropyl)amino]-6-[(1E)-prop-1-en-1-yl]imidazo[1,2-a]pyrazin-3-yl}benzamide]  6.2 nM
19. CC(C)CNc1nc(C2CC2)cn2c(-c3ccc(C(=O)NC4CC4)cc3)cnc12 [Example 1-5, N-cyclopropyl-4-{6-cyclopropyl-8-[(2-methylpropyl)amino]imidazo[1,2-a]pyrazin-3-yl}benzamide]  6.2 nM
20. CC(C)CNc1nc(C2CCCC2)cn2c(-c3ccc(C(=O)NC4CC4)cc3)cnc12 [Example 4-2, 4-{6-cyclopentyl-8-[(2-methylpropyl)amino]imidazo[1,2-a]pyrazin-3-yl}-N-cyclopropylbenzamide]  6.1 nM
21. C=C(C)c1cn2c(-c3ccc(C(=O)NC4CC4)cc3)cnc2c(NCC(C)C)n1 [Example 1-9, N-cyclopropyl-4-{8-[(2-methylpropyl)amino]-6-(prop-1-en-2-yl)imidazo[1,2-a]pyrazin-3-yl}benzamide]  5.8 nM
22. CC(C)CNc1nc(C2=CCCCC2)cn2c(-c3ccc(C(=O)NC4CC4)cc3)cnc12 [Example 1-3, 4-{6-(cyclohex-1-en-1-yl)-8-[(2-methylpropyl)amino]imidazo[1,2-a]pyrazin-3-yl}-N-cyclopropylbenzamide]  4.2 nM
23. C/C=C(\C)c1cn2c(-c3ccc(C(=O)NC4CC4)cc3)cnc2c(NCC(C)C)n1 [Example 1-7, 4-{6-[(2E)-but-2-en-2-yl]-8-[(2-methylpropyl)amino]imidazo[1,2-a]pyrazin-3-yl}-N-cyclopropylbenzamide]  4.1 nM
24. CC(C)CNc1nc(C2CC=CCC2)cn2c(-c3ccc(C(=O)NC4CC4)cc3)cnc12 (centres unmarked) [Example 1-6, 4-{6-(cyclohex-3-en-1-yl)-8-[(2-methylpropyl)amino]imidazo[1,2-a]pyrazin-3-yl}-N-cyclopropylbenzamide]  2.8 nM
25. C/C=C(/C)c1cn2c(-c3ccc(C(=O)NC4CC4)cc3)cnc2c(NCC(C)C)n1 [Example 1-4, 4-{6-[(2Z)-but-2-en-2-yl]-8-[(2-methylpropyl)amino]imidazo[1,2-a]pyrazin-3-yl}-N-cyclopropylbenzamide]  1.9 nM
26. CC(C)CNc1nc(/C=C2\CCC(=O)N2C)cn2c(-c3ccc(C(=O)NC4CC4)cc3)cnc12 [Example 5-1, N-cyclopropyl-4-{6-[(E)-(1-methyl-5-oxopyrrolidin-2-ylidene)methyl]-8-[(2-methylpropyl)amino]imidazo[1,2-a]pyrazin-3-yl}benzamide]  1.9 nM
